Results published in patent US20050222274A1 (priority 2002, published 2005).

How the values were obtained:
[1] = system: release of APPs produced by α-secretase; assay: release of APPs in the culture medium of neuroblastoma cell line SH-SY5Y; assay type: cell-based; conditions: 10 μM; APPs secreted in culture medium of SH-SY5Y; controls = 100
Description: It is in fact known that proteolytic cleavage of Alzheimer Precursor Protein (APP) is mediated both by β- and γ-secretase, inducing an increased production of amyloid peptide Ab1-42 (which also plays a central role in the appearance of Alzheimer's disease), and […], giving raise to soluble APPs which have no pathogenic activity (Eslr W. P., Wolfe M. S., Science, 293, 1449-54, 2001).
The effect of the compounds of the invention on the release of APPs produced by α-secretase was evaluated in the culture medium of a neuroblastoma cell line (SH-SY5Y) according to the procedure described by Galbete J. L. et al. in Biochem J. 348, 307-313, 2000.

[2] = usual extraction and storage conditions; cited from earlier work

Row | Molecule | APPs % [1] | stability (in words) [2]
1 | CC(C)=CCC[C@]1(C)[C@@H](CC=C(C)C)C[C@]2(CC=C(C)C)C(=O)C(Cl)(CC=C(C)C)C(=O)[C@@]1(C(=O)C(C)C)C2=O (stereo partly shown) [Chlorohyperforin, 8-chlorohyperforin] | 627% | –
2 | CC(C)=CCC[C@]1(C)[C@@H](CC=C(C)C)C[C@@]2(CC=C(C)C)C(=O)[C@]1(C(=O)C(C)C)C(=O)C(CC=C(C)C)=C2O [Hyperforin] | 296% | poorly stable
3 | 8-chlorooctahydrohyperforin | 855% | –
